Drawing on US9969726B2, “Metabotropic glutamate receptor negative allosteric modulators (NAMS) and uses thereof” (Sanford-Burnham Medical Research Institute, priority 2014, dated 2018), this text covers EC50 for 29 compounds.

For orientation: EC50 means the concentration that produces a half-maximal response.

One experiment addresses rat mGlu3 receptor (Rattus norvegicus (Rat), UniProt P31422). Briefly: mGlu3 in vitro GIRK thallium flux assay. The class given is cell-based. To be noted: NAM; 2.5 min compound incubation; EC80 glutamate; HEK-293 GIRK cells. A digest of the protocol: (§1)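 Cells expressing rat mGlu2 or mGlu3 with GIRK, plated overnight at 37 °C. Test compounds (0.3% DMSO, 10-point 1:3 series) preincubated 2.5 or 60 min, then thallium buffer plus EC80 glutamate added. Fluorescence slope 5–15 s after addition, normalised to vehicle and maximal agonist, fitted by four-parameter logistic.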

A further experiment has as its target rat mGlu2 receptor (Rattus norvegicus (Rat), UniProt P31421). The experiment can be described thus: mGlu2 in vitro GIRK thallium flux assay. In kind it is cell-based. Conditions: NAM, EC80 glutamate, HEK-293 GIRK cells. A digest of the protocol:
as §1

Setting [1] is: 2.5 min compound incubation, read-out: mGlu2 EC50 (μM) (2.5 min).
Where [2] appears, read: mGlu2 EC50 (μM) (60 min), 60 min compound incubation.
The mark [3] stands for this setting: read-out: mGlu2 EC50 (μM) (60 min), 60 min compound incubation.

Each structure is given as a SMILES string. Like-named read-outs stand apart in the source and are kept apart here.

Chain of rat mGlu2 receptor (P31421 19-872): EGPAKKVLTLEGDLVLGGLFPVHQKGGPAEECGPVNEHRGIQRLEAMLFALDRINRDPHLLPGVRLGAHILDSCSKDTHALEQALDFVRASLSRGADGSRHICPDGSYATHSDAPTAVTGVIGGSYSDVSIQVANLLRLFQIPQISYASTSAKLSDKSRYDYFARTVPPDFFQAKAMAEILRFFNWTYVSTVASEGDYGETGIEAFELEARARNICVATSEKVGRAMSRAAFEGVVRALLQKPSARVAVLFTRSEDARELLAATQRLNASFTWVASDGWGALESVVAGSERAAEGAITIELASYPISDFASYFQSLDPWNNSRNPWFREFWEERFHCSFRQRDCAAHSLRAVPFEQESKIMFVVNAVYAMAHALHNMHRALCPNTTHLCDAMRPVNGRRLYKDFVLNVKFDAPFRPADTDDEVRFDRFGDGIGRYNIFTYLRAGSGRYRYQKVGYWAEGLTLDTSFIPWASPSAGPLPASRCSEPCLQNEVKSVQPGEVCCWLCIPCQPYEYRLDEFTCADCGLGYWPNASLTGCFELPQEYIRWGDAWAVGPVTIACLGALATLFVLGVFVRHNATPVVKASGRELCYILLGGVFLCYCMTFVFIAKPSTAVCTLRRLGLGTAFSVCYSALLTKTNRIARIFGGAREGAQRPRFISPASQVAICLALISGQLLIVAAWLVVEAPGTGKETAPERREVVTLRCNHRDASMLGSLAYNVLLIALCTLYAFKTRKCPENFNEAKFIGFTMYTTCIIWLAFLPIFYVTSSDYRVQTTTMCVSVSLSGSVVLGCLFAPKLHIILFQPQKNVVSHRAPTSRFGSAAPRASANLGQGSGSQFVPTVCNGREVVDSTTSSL
Chain of rat mGlu3 receptor (P31422 23-879): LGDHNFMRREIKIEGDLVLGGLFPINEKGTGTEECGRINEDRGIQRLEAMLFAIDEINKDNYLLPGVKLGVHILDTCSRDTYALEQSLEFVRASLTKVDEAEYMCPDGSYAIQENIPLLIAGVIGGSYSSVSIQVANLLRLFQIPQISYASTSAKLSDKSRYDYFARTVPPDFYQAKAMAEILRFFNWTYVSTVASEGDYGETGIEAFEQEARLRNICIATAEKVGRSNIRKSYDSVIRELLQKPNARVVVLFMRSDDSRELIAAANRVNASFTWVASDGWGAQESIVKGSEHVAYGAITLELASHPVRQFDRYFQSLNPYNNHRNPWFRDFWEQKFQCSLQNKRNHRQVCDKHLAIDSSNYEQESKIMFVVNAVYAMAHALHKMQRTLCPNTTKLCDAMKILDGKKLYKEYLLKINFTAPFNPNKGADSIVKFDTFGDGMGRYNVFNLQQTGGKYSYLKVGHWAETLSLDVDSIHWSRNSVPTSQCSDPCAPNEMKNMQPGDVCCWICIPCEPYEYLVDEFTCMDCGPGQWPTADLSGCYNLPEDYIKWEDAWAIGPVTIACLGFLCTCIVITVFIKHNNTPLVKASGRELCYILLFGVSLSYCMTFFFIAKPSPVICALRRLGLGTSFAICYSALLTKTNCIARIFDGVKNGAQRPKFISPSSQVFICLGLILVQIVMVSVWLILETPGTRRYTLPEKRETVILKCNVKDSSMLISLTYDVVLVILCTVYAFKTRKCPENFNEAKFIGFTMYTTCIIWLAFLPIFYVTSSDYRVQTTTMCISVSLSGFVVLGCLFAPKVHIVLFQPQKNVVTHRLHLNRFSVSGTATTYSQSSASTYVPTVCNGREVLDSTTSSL

For the compound `O=C(O)c1cccc(-c2cccc(-c3nc(-c4ccc(C(F)(F)F)nc4)n(-c4ccccc4)n3)c2)c1` [Example 58, 3′-(1-Phenyl-5-(6-(trifluoromethyl)pyridin-3-yl)-1H-1,2,4-triazol-3-yl)-[1,1′-biphenyl]-3-carboxylic Acid], the EC50 at rat mGlu3 receptor was 5.56 µM; at rat mGlu2 receptor (setting [1]), > 10 µM; on rat mGlu2 receptor (setting [2]), > 10 µM.

Take `O=C1CC(c2ccnc(Cl)c2)=Nc2ccc(-c3cccnc3F)cc2N1` [Example 188, 4-(2-Chloropyridin-4-yl)-8-(2-fluoropyridin-3-yl)-1,3-dihydro-2H-benzo[b][1,4]diazepin-2-one]: the values for the EC50 on rat mGlu3 receptor and at rat mGlu2 receptor (setting [1]) were 1.7 µM and > 10 µM, respectively.

Regarding `O=C(O)c1cc(-c2cccc(-c3nc(-c4nccs4)cc(C(F)(F)F)n3)c2)ccc1F` [Example 109, 4-Fluoro-3′-(4-(thiazol-2-yl)-6-(trifluoromethyl)pyrimidin-2-yl)biphenyl-3-carboxylic Acid], the results for the EC50 at rat mGlu3 receptor, at rat mGlu2 receptor (setting [1]) and on rat mGlu2 receptor (setting [3]) were 2.13 µM, 1.34 µM and 0.297 µM, respectively.

In the case of `O=C(O)c1cc(-c2cccc(-c3nc(-c4cccs4)cc(C(F)(F)F)n3)c2)ccc1F` [Example 87A, 4-Fluoro-3′-(4-(thiophen-2-yl)-6-(trifluoromethyl)pyrimidin-2-yl)biphenyl-3-carboxylic Acid], the EC50 was found to be 1.26 µM on rat mGlu3 receptor, 1.12 µM at rat mGlu2 receptor (setting [1]) and 0.24 µM on rat mGlu2 receptor (setting [3]).

Consider `O=C(O)c1ccc(-c2cccc(-c3csc(-c4ccccc4)n3)c2)cc1Cl` [Example 21, 3-Chloro-3′-(2-phenylthiazol-4-yl)biphenyl-4-carboxylic Acid], for which the EC50 on rat mGlu3 receptor, at rat mGlu2 receptor (setting [1]) and on rat mGlu2 receptor (setting [2]) was > 10 µM throughout.

For `O=C(O)c1cc(-c2cccc(-c3csc(-c4cccs4)n3)c2)ccc1F` [Example 15, 4-Fluoro-3′-(2-(thiophen-2-yl)thiazol-4-yl)biphenyl-3-carboxylic Acid], the figures for the EC50 on rat mGlu3 receptor, at rat mGlu2 receptor (setting [1]) and on rat mGlu2 receptor (setting [2]) were > 10 µM, 1.5 µM and 0.93 µM, respectively.

For `Cc1cccc(-c2ccc3c(c2)NC(=O)CC(c2ccnc(Cl)c2)=N3)c1` [Example 193, 4-(2-Chloropyridin-4-yl)-8-(m-tolyl)-1,3-dihydro-2H-benzo[b][1,4]diazepin-2-one], the EC50 at rat mGlu3 receptor was > 10 µM; at rat mGlu2 receptor (setting [1]), > 10 µM; at rat mGlu2 receptor (setting [3]), 0.95 µM.

In the case of `N#Cc1cc(C2=Nc3ccc(Cl)cc3NC(=O)C2)ccn1` [Example 181, 4-(8-Chloro-2-oxo-2,3-dihydro-1H-benzo[b][1,4]diazepin-4-yl)picolinonitrile], the EC50 on rat mGlu3 receptor and on rat mGlu2 receptor (setting [1]) was > 10 µM in each case.

Consider `O=C(O)c1cccc(-c2cccc(-c3csc(-c4ccc5ccccc5c4)n3)c2)c1` [Example 32, 3-[3-(2-(2-Naphthyl)-1,3-thiazol-4-yl)phenyl]benzoic acid], for which the figures for the EC50 on rat mGlu3 receptor, at rat mGlu2 receptor (setting [1]) and on rat mGlu2 receptor (setting [2]) were > 30 µM, > 10 µM and 4.98 µM, respectively.

`O=C(O)c1cc(-c2cccc(-c3nc(-c4cc5ccccc5o4)cc(C(F)(F)F)n3)c2)ccc1F` [Example 101, 3′-(4-(Benzofuran-2-yl)-6-(trifluoromethyl)pyrimidin-2-yl)-4-fluorobiphenyl-3-carboxylic Acid]: the EC50 on rat mGlu3 receptor was > 10 µM; on rat mGlu2 receptor (setting [1]), > 10 µM; on rat mGlu2 receptor (setting [3]), 0.95 µM.

As for `O=C(O)c1cccc(-c2cccc(-c3nc(-c4cccs4)n(-c4ccccc4)n3)c2)c1` [Example 53, 3′-(1-Phenyl-5-(thiophen-2-yl)-1H-1,2,4-triazol-3-yl)-[1,1′-biphenyl]-3-carboxylic Acid], the EC50 was 4.29 µM at rat mGlu3 receptor, > 10 µM on rat mGlu2 receptor (setting [1]) and 3.67 µM on rat mGlu2 receptor (setting [2]).

Regarding `O=C(O)c1ccccc1-c1cccc(-c2nc(-c3ccc(C(F)(F)F)nc3)cc(C(F)(F)F)n2)c1` [Example 72, 3′-(4-(Trifluoromethyl)-6-(6-(trifluoromethyl)pyridin-3-yl)pyrimidin-2-yl)biphenyl-2-carboxylic Acid], the EC50 on rat mGlu3 receptor, on rat mGlu2 receptor (setting [1]) and on rat mGlu2 receptor (setting [3]) was > 10 µM in each case.

Take `O=C(O)c1cc(-c2cccc(-c3nc(/C=C/c4ccccc4)cc(C(F)(F)F)n3)c2)ccc1F` [Example 95, (E)-4-Fluoro-3′-(4-styryl-6-(trifluoromethyl)pyrimidin-2-yl)biphenyl-3-carboxylic Acid]: the concentration for a half-maximal effect (EC50) at rat mGlu3 receptor and at rat mGlu2 receptor (setting [1]) was > 10 µM throughout.

As to `O=C(O)c1ccc(F)c(-c2cccc(-c3csc(-c4ccccc4)n3)c2)c1` [Example 11, 6-Fluoro-3′-(2-phenylthiazol-4-yl)biphenyl-3-carboxylic Acid], the EC50 at rat mGlu3 receptor is > 30 µM; on rat mGlu2 receptor (setting [1]), 1.59 µM; at rat mGlu2 receptor (setting [2]) it was 3.4 µM.

Turning to `Cc1cc(-c2ccoc2)nc(-c2cccc(-c3ccc(F)c(C(=O)O)c3)c2)n1` [Example 117, 4-Fluoro-3′-(4-(furan-3-yl)-6-methylpyrimidin-2-yl)biphenyl-3-carboxylic acid], the figures for the EC50 on rat mGlu3 receptor, at rat mGlu2 receptor (setting [1]) and at rat mGlu2 receptor (setting [3]) were 0.28 µM, 0.08 µM and 0.07 µM, respectively.

With `CC(C)(C)c1ccc(-c2cc(C(F)(F)F)nc(-c3cccc(-c4ccc(F)c(C(=O)O)c4)c3)n2)cc1` [Example 96, 3′-(4-(4-tert-Butylphenyl)-6-(trifluoromethyl)pyrimidin-2-yl)-4-fluorobiphenyl-3-carboxylic Acid], the EC50 at rat mGlu3 receptor was 6.11 µM; at rat mGlu2 receptor (setting [1]) it was 5.38 µM; at rat mGlu2 receptor (setting [3]), 1.08 µM.

Turning to `O=C(O)c1ccc(-c2cccc(-c3nc(-c4ccccc4)n(-c4ccccc4)n3)c2)cc1` [Example 60, 3′-(1,5-Diphenyl-1H-1,2,4-triazol-3-yl)-[1,1′-biphenyl]-4-carboxylic Acid], the EC50 at rat mGlu3 receptor was 5.3 µM; at rat mGlu2 receptor (setting [1]) it was > 10 µM; at rat mGlu2 receptor (setting [2]) it was > 10 µM.

In the case of `O=C(O)c1cccc(-c2cccc(-c3cc(-c4ccccc4)sn3)c2)c1` [Example 44, 3′-(5-Phenylisothiazol-3-yl)-[1,1′-biphenyl]-3-carboxylic Acid], the concentration for a half-maximal effect (EC50) at rat mGlu3 receptor was > 10 µM; on rat mGlu2 receptor (setting [1]) it was 0.68 µM; at rat mGlu2 receptor (setting [3]) it was 0.18 µM.

For the compound `Cc1cc(-c2ccoc2)nc(-c2cccc(-c3cc(F)cc(C(=O)O)c3)c2)n1` [Example 121, 5-Fluoro-3′-(4-(furan-3-yl)-6-methylpyrimidin-2-yl)-[1,1′-biphenyl]-3-carboxylic Acid], the EC50 is 2.21 µM on rat mGlu3 receptor, 0.35 µM at rat mGlu2 receptor (setting [1]) and 0.31 µM on rat mGlu2 receptor (setting [2]).

On to `COc1ccc(-c2nc(-c3cccc(-c4cccc(C(=O)O)c4)c3)cs2)cc1` [Example 31, 3-{3-[2-(4-Methoxyphenyl)-1,3-thiazol-4-yl]phenyl}benzoic acid], for which the half-maximal effective concentration (EC50) is 3.09 µM on rat mGlu3 receptor, 1.23 µM at rat mGlu2 receptor (setting [1]) and 0.67 µM on rat mGlu2 receptor (setting [2]).

With `O=C1CC(c2ccnc(-c3ccccc3)c2)=Nc2ccc(C(F)(F)F)cc2N1` [Example 198, 4-(2-Phenylpyridin-4-yl)-8-(trifluoromethyl)-1,3-dihydro-2H-benzo[b][1,4]diazepin-2-one], the EC50 is 0.46 µM at rat mGlu3 receptor, > 10 µM on rat mGlu2 receptor (setting [1]) and 0.26 µM on rat mGlu2 receptor (setting [3]).

Turning to `CCOc1ccc(-c2ccc3c(c2)NC(=O)CC(c2ccnc(Cl)c2)=N3)cc1` [Example 192, 4-(2-Chloropyridin-4-yl)-8-(4-ethoxyphenyl)-1,3-dihydro-2H-benzo[b][1,4]diazepin-2-one], the EC50 on rat mGlu3 receptor and on rat mGlu2 receptor (setting [1]) was > 10 µM each time.

On to `O=C(O)c1cc(-c2cccc(-c3nc(-c4ccccc4)n(-c4ccccc4)n3)c2)ccc1F` [Example 51, 3′-(1,5-Diphenyl-1H-1,2,4-triazol-3-yl)-4-fluoro-[1,1′-biphenyl]-3-carboxylic acid], for which the results for the EC50 at rat mGlu3 receptor, on rat mGlu2 receptor (setting [1]) and on rat mGlu2 receptor (setting [2]) were 5.8 µM, > 10 µM and > 10 µM, respectively.

For the compound `COc1ccc(-c2cc(C(F)(F)F)nc(-c3cccc(-c4ccc(F)c(C(=O)O)c4)c3)n2)cc1OC` [Example 99, 3′-(4-(3,4-Dimethoxyphenyl)-6-(trifluoromethyl)pyrimidin-2-yl)-4-fluorobiphenyl-3-carboxylic Acid], the values for the EC50 on rat mGlu3 receptor, on rat mGlu2 receptor (setting [1]) and at rat mGlu2 receptor (setting [3]) were 2.83 µM, > 10 µM and 1.3 µM, respectively.

On to `COc1ccc(-c2cccc(-c3nc(-c4ccco4)cc(C(F)(F)F)n3)c2)cc1C(=O)O` [Example 90, 3′-(4-(Furan-2-yl)-6-(trifluoromethyl)pyrimidin-2-yl)-4-methoxybiphenyl-3-carboxylic Acid], for which the EC50 at rat mGlu3 receptor is > 10 µM; on rat mGlu2 receptor (setting [1]), 3.68 µM; at rat mGlu2 receptor (setting [3]), 2.49 µM.

As to `Cc1cc(-c2ccoc2)nc(-c2cccc(-c3cccc(C(=O)O)c3)c2)n1` [Example 119, 3′-(4-(Furan-3-yl)-6-methylpyrimidin-2-yl)biphenyl-3-carboxylic Acid], the EC50 on rat mGlu3 receptor was 0.35 µM; on rat mGlu2 receptor (setting [1]), 0.05 µM; at rat mGlu2 receptor (setting [3]), 0.06 µM.

For the compound `ON=Cc1cc(-c2cccc(-c3csc(-c4ccccc4)n3)c2)ccc1F` [Example 20, 4-Fluoro-3′-(2-phenylthiazol-4-yl)biphenyl-3-carbaldehyde oxime], the EC50 at rat mGlu3 receptor is > 30 µM; on rat mGlu2 receptor (setting [1]), > 30 µM; on rat mGlu2 receptor (setting [2]) it was > 10 µM.

Turning to `O=C(O)c1cc(-c2cccc(-c3csc(-c4ccoc4)n3)c2)ccc1F` [Example 4, 4-Fluoro-3′-(2-(furan-3-yl)thiazol-4-yl)biphenyl-3-carboxylic Acid], the EC50 on rat mGlu3 receptor was > 10 µM; at rat mGlu2 receptor (setting [1]), 2.26 µM; on rat mGlu2 receptor (setting [2]) it was 2.5 µM.

With `O=C(O)c1cccc(-c2cccc(-c3nsc(-c4ccccc4)n3)c2)c1` [Example 39, 3′-(5-Phenyl-1,2,4-thiadiazol-3-yl)biphenyl-3-carboxylic Acid], the EC50 on rat mGlu3 receptor was found to be 2.28 µM; at rat mGlu2 receptor (setting [1]) it was 0.32 µM; at rat mGlu2 receptor (setting [2]), 0.05 µM.
